Data from US20060211684A1, “Use of alpha-2 adrenergic receptor agonists” (Perlegen Sciences, Inc., priority 2005, published 2006).
Read-outs that look alike come from different tables or passages of the source.

Experiments:
[1] = test system: transverse aortic constricted α2C−/−mice
Protocol: This example tests whether treatment of α2C−/−knockout transgenic mice with the partial α2A agonist, clonidine, improves cardiac function and reduces ventricular hypertrophy after left ventricular pressure overload. In other words, the example tests whether clonidine-mediated activation of α2A-receptors compensates for the loss of functional α2C. The mice used in this experiment are described in more detail in Brede et al., Circulation 106, 2491-2496 (2002). […] Mice were treated with 200 μg/kg/day clonidine or vehicle for four weeks. Three mice were treated with clonidine and three with vehicle in the initial experiment.

[2] = cited from earlier work
[3] = after ingestion; cited from earlier work
[4] = cited from earlier work; remark: listed apart in the source
[5] = initial experiment, 200 μg/kg/day for four weeks, three mice clonidine, three vehicle, FIG. 1
[6] = second experiment, 200 μg/kg/day for 4 weeks via osmotic minipumps, n=5 clonidine, n=6 vehicle

Clc1cccc(Cl)c1NC1=NCCN1 [clonidine, N-(2,6-dichlorophenyl)-4,5-dihydro-1 H-imidazol-2-amine]
hypertrophy ([1]; FIGS. 1 and 2): prevents and reduces | left ventricular systolic pressures ([1]; FIGS. 1 and 2): slightly reduced | ventricular contractility ([1]; FIGS. 1 and 2): maintained | contractility of the heart [1, 5]: did not effect | left ventricular systolic pressure [1, 5]: reduced | ventricular hypertrophy [1, 5]: reduced | contractility of the heart [1, 6]: did not effect | left ventricular systolic pressure [1, 6]: reduced | ventricular hypertrophy [1, 6]: reduced | time to peak plasma concentrations ([2]; after a single oral dose): 3 to 5 h | CNS penetration ([2]; because of lipid solubility): excellent | time to steady state levels ([2]; dermal application): several days | absorption from the gastrointestinal tract ([2]; in vivo): rapidly absorbed | elimination ([2]; in vivo): excreted unchanged in the urine and metabolized by the liver | onset of antihypertensive effects [3]: 30 to 60 min | side effects ([4]; therapeutic doses typically used (0.2-0.9 mg/day)): dryness of the mouth, dizziness, sedation, and constipation | toxic effects ([4]; toxic doses, children and adults): serious cardiopulmonary instability and central nervous system depression
